The data set can be described thus: Photostability of C14 porphyrin in aqueous medium. Type of data set: physicochemical. To be noted: 2.5 μM in PBS; visible light 20 mW/cm^2 for up to 60 minutes. The procedure:
The photostability of the C14 porphyrin was determined in phosphate-buffered saline (PBS) upon illumination of a 2.5 μM porphyrin solution (initial absorbance around 0.5 at 424 nm) with white light (400-800 nm), which was isolated from the emission of a quartz-halogen lamp equipped with broad band filters to eliminate UV and infrared radiation. The light source was supplied by Teclas (Lugano, Switzerland), and operated at a fluence rate of 20 mW/cm^2. During irradiation the porphyrin solution was kept in agitation on a magnetic stirrer at room temperature. The concentration of the porphyrin in the aqueous solution was monitored spectrophotometrically at different irradiation times up to 60 min, and the photostability was expressed as the percent residual absorbance referred to the absorbance measured before irradiation.
The stability of C14 to the effect of full spectrum visible light was studied for a 2.5 μM porphyrin solution in PBS. The exposure of the porphyrin to visible light at a fluence rate of 20 mW/cm^2 for up to 60 minutes caused a decrease in the overall absorbance of less than 10%, which involved the whole set of bands in the blue, green and red spectral region. […]

For the compound `CCCCCCCCCCCCCC[n+]1ccc(-c2c3nc(c(-c4cc[n+](C)cc4)c4ccc([nH]4)c(-c4cc[n+](C)cc4)c4nc(c(-c5cc[n+](C)cc5)c5ccc2[nH]5)C=C4)C=C3)cc1.Cc1ccc(S(=O)(=O)[O-])cc1.Cc1ccc(S(=O)(=O)[O-])cc1.Cc1ccc(S(=O)(=O)[O-])cc1.Cc1ccc(S(=O)(=O)[O-])cc1` [C14, meso-tri(N-methyl-pyridyl), mono(N-tetradecyl-pyridyl)porphine], the “decrease in the overall absorbance” value is listed as “less than 10%”.

The record behind these values is US20130296370A1, “COMPOSITION COMPRISING A PHOTOACTIVATABLE LARVICIDE” (UNIVERSITA DEGLI STUDI DI PADOVA, priority 2010, published 2013).
